Assay: stability of the polymorphic form at ambient temperatures
Assay type: physicochemical

- stability at ambient temperatures: particular stability
SMILES: CC(C)(C)c1nnc([C@H]2O[C@@H](n3cnc4c(Nc5ccc(Cl)cc5F)ncnc43)[C@H](O)[C@@H]2O)o1 [Polymorph I, (2S,3S,4R,5R)-2-(5-tert-butyl-[1,3,4]-oxadiazol-2-yl)-5-[6-(4-chloro-2-fluorophenylamino)-9H-purin-9-yl]-tetrahydrofuran-3,4-diol]
